Assay results: paper PMC11604048, “Constrained TACC3 peptidomimetics for a non-canonical protein–protein interface elucidate allosteric communication in Aurora-A kinase” (Chemical Science, 2024)
Like-named read-outs stand apart in the source and are kept apart here. *1 amine or outer side, *2 acyl side, *3 side chain or, on linkers, in order; H or OH if unused. Where a SMILES comes first, the peptide text is derived from it. Bridges are numbered along the chain shown (N, C = ends). [ ]: non-standard residue; d: D form. Maleimide(3,4-diyl) = O=C1NC(=O)C([*:2])=C1[*:1]; Bpa = N[C@@H](Cc1ccc(C(=O)c2ccccc2)cc1)C(=O)O

Biological target: T1, Aurora-A122-403-C290A/C393A (Homo sapiens, UniProt O14965, C290A/C393A)
T1 construct: Human Aurora-A kinase domain 122-403 wild-type or C290A/ C393A mutant; His tag (pET30TEV vector) (N, cleaved yes); made in house; host or cells: E. coli RIL, co-expressed with lambda phosphatase (Aurora-A); tracer by solid phase synthesis
T1 sequence (O14965 122-403 C290A/C393A): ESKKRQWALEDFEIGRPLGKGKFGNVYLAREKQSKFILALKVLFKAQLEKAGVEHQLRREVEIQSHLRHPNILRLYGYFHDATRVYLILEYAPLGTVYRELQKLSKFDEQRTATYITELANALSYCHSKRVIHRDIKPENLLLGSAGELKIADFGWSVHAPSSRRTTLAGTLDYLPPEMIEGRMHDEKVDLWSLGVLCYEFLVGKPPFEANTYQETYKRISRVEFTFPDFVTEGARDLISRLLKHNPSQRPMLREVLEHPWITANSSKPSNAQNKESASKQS
Test: Competition FA assay against FAM-Ahx-TACC3 522-536 tracer
Type: binding

[1] = as E1, oxidised (disulfide) species made in situ from 10 mM stock in aqueous DMSO 33% v/v, air, overnight, WT control (+DMSO) given the same DMSO incubation, mean ± SD, n = 3, read-out: IC50 (ox)

SMILES | IC50 (SD, read-out: IC50) [µM] | further results
CC(=O)N[C@@H](CCC(=O)O)C(=O)N[C@@H](CCC(=O)O)C(=O)N[C@H]1CSC2=C(SC[C@@H](C(=O)N3CCC[C@H]3C(=O)N[C@@H](C)C(=O)N[C@@H](CCC(=O)O)C(=O)N[C@H](C(=O)N[C@@H](CC(C)C)C(=O)NCC(=O)N[C@H](C(=O)NCC(=O)N[C@@H](C)C(N)=O)[C@@H](C)O)C(C)C)NC(=O)[C@H](CCCNC(=N)N)NC(=O)[C@H](Cc3ccccc3)NC1=O)C(=O)NC2=O [TACC3 522-536 S524C/D527C (mal)] (Ac-EECFRCPAEVLGTGA-NH2; linker 3-6 via Maleimide(3,4-diyl) (inferred)) |  | IC50 (as E1, Table S3 (mal): maleimide-constrained species, WT value is an individual replica control assay, mean ± SD, n = 3, read-out: IC50 (mal)): ≥ 500 µM
CC(=O)N[C@@H](CCC(=O)O)C(=O)N[C@@H](CCC(=O)O)C(=O)N[C@H]1CSSC[C@@H](C(=O)N2CCC[C@H]2C(=O)N[C@@H](C)C(=O)N[C@@H](CCC(=O)O)C(=O)N[C@H](C(=O)N[C@@H](CC(C)C)C(=O)NCC(=O)N[C@H](C(=O)NCC(=O)N[C@@H](C)C(N)=O)[C@@H](C)O)C(C)C)NC(=O)[C@H](CCCNC(=N)N)NC(=O)[C@H](Cc2ccccc2)NC1=O [TACC3 522-536 S524C/D527C (ox)] (Ac-EECFRCPAEVLGTGA-NH2; disulfide 3-6) |  | IC50 [1]: ≥ 500 µM
CC(=O)N[C@@H](CCC(=O)O)C(=O)N[C@@H](CCC(=O)O)C(=O)N[C@@H](CS)C(=O)N[C@@H](Cc1ccccc1)C(=O)N[C@@H](CCCNC(=N)N)C(=O)N[C@@H](CS)C(=O)N1CCC[C@H]1C(=O)N[C@@H](C)C(=O)N[C@@H](CCC(=O)O)C(=O)N[C@H](C(=O)N[C@@H](CC(C)C)C(=O)NCC(=O)N[C@H](C(=O)NCC(=O)N[C@@H](C)C(N)=O)[C@@H](C)O)C(C)C [TACC3 522-536 S524C/D527C (red)] (Ac-EECFRCPAEVLGTGA-NH2) |  | IC50 (as E1, free-sulfhydryl (reduced) species, DTT 5 mM in buffer, WT control (+DTT), mean ± SD, n = 3, SD, read-out: IC50 (red)): 309 ± 38 µM
CC(=O)N[C@@H](CCC(=O)O)C(=O)N[C@@H](CCC(=O)O)C(=O)N[C@@H](CO)C(=O)N[C@@H](Cc1ccccc1)C(=O)N[C@@H](CCCNC(=N)N)C(=O)N[C@@H](CC(=O)O)C(=O)N1CCC[C@H]1C(=O)N[C@@H](C)C(=O)N[C@@H](CCC(=O)O)C(=O)N[C@H]1CSC2=C(SC[C@@H](C(=O)NCC(=O)N[C@@H](C)C(N)=O)NC(=O)CNC(=O)[C@H](CC(C)C)NC1=O)C(=O)NC2=O [TACC3 522-536 V531C/T534C (mal)] (Ac-EESFRDPAECLGCGA-NH2; linker 10-13 via Maleimide(3,4-diyl)) |  | IC50 (as E1, Table S3 (mal): maleimide-constrained species, WT value is an individual replica control assay, mean ± SD, n = 3, SD, read-out: IC50 (mal)): 412 ± 73 µM
CC(=O)N[C@@H](CCC(=O)O)C(=O)N[C@@H](CCC(=O)O)C(=O)N[C@@H](CO)C(=O)N[C@@H](Cc1ccccc1)C(=O)N[C@@H](CCCNC(=N)N)C(=O)N[C@@H](CC(=O)O)C(=O)N1CCC[C@H]1C(=O)N[C@@H](C)C(=O)N[C@@H](CCC(=O)O)C(=O)N[C@H]1CSSC[C@@H](C(=O)NCC(=O)N[C@@H](C)C(N)=O)NC(=O)CNC(=O)[C@H](CC(C)C)NC1=O [TACC3 522-536 V531C/T534C (ox)] (Ac-EESFRDPAECLGCGA-NH2; disulfide 10-13) |  | IC50 [1]: ≥ 500 µM
CC(=O)N[C@@H](CCC(=O)O)C(=O)N[C@@H](CCC(=O)O)C(=O)N[C@@H](CO)C(=O)N[C@@H](Cc1ccccc1)C(=O)N[C@@H](CCCNC(=N)N)C(=O)N[C@@H](CC(=O)O)C(=O)N1CCC[C@H]1C(=O)N[C@@H](C)C(=O)N[C@@H](CCC(=O)O)C(=O)N[C@@H](CS)C(=O)N[C@@H](CC(C)C)C(=O)NCC(=O)N[C@@H](CS)C(=O)NCC(=O)N[C@@H](C)C(N)=O [TACC3 522-536 V531C/T534C (red)] (Ac-EESFRDPAECLGCGA-NH2) |  | IC50 (as E1, free-sulfhydryl (reduced) species, DTT 5 mM in buffer, WT control (+DTT), mean ± SD, n = 3, read-out: IC50 (red)): ≥ 500 µM
CC(=O)N[C@@H](CCC(=O)O)C(=O)N[C@@H](CCC(=O)O)C(=O)N[C@@H](CO)C(=O)N[C@@H](Cc1ccc(Br)cc1)C(=O)N[C@@H](CCCNC(=N)N)C(=O)N[C@@H](CC(=O)O)C(=O)N1CCC[C@H]1C(=O)N[C@@H](C)C(=O)N[C@@H](CCC(=O)O)C(=O)N[C@H](C(=O)N[C@@H](CC(C)C)C(=O)NCC(=O)N[C@H](C(=O)NCC(=O)N[C@@H](C)C(N)=O)[C@@H](C)O)C(C)C [TACC3 522-536_(4-Br)525F] | 34 ± 6 | 
CC(=O)N[C@@H](CCC(=O)O)C(=O)N[C@@H](CCC(=O)O)C(=O)N[C@@H](CO)C(=O)N[C@@H](Cc1ccc(Cl)cc1)C(=O)N[C@@H](CCCNC(=N)N)C(=O)N[C@@H](CC(=O)O)C(=O)N1CCC[C@H]1C(=O)N[C@@H](C)C(=O)N[C@@H](CCC(=O)O)C(=O)N[C@H](C(=O)N[C@@H](CC(C)C)C(=O)NCC(=O)N[C@H](C(=O)NCC(=O)N[C@@H](C)C(N)=O)[C@@H](C)O)C(C)C [TACC3 522-536_(4-Cl)525F] | 46 ± 8 | 
CC(=O)N[C@@H](CCC(=O)O)C(=O)N[C@@H](CCC(=O)O)C(=O)N[C@@H](CO)C(=O)N[C@@H](Cc1ccc(C(=O)c2ccccc2)cc1)C(=O)N[C@@H](CCCNC(=N)N)C(=O)N[C@@H](CC(=O)O)C(=O)N1CCC[C@H]1C(=O)N[C@@H](C)C(=O)N[C@@H](CCC(=O)O)C(=O)N[C@H](C(=O)N[C@@H](CC(C)C)C(=O)NCC(=O)N[C@H](C(=O)NCC(=O)N[C@@H](C)C(N)=O)[C@@H](C)O)C(C)C [TACC3 522-536_(pBnz) -525F] (Ac-EES[Bpa]RDPAEVLGTGA-NH2) |  | IC50: ≥ 500 µM

The next lines start with results.

IC50 (SD, read-out: IC50) [µM] | SMILES | further results
97 ± 10 | CC(=O)N[C@@H](CCC(=O)O)C(=O)N[C@@H](CCC(=O)O)C(=O)N[C@@H](CO)C(=O)N[C@@H](Cc1c(F)c(F)c(F)c(F)c1F)C(=O)N[C@@H](CCCNC(=N)N)C(=O)N[C@@H](CC(=O)O)C(=O)N1CCC[C@H]1C(=O)N[C@@H](C)C(=O)N[C@@H](CCC(=O)O)C(=O)N[C@H](C(=O)N[C@@H](CC(C)C)C(=O)NCC(=O)N[C@H](C(=O)NCC(=O)N[C@@H](C)C(N)=O)[C@@H](C)O)C(C)C [TACC3 522-536_5f-525F] | 
170 ± 17 | CC(=O)N[C@@H](CCC(=O)O)C(=O)N[C@@H](CCC(=O)O)C(=O)N[C@@H](CO)C(=O)N[C@@H](Cc1ccc(C(F)(F)F)cc1)C(=O)N[C@@H](CCCNC(=N)N)C(=O)N[C@@H](CC(=O)O)C(=O)N1CCC[C@H]1C(=O)N[C@@H](C)C(=O)N[C@@H](CCC(=O)O)C(=O)N[C@H](C(=O)N[C@@H](CC(C)C)C(=O)NCC(=O)N[C@H](C(=O)NCC(=O)N[C@@H](C)C(N)=O)[C@@H](C)O)C(C)C [TACC3 522-536_(4-CF3)525F] | 
138 ± 8 | CC(=O)N[C@@H](CCC(=O)O)C(=O)N[C@@H](CCC(=O)O)C(=O)N[C@@H](CO)C(=O)N[C@@H](Cc1ccc(C#N)cc1)C(=O)N[C@@H](CCCNC(=N)N)C(=O)N[C@@H](CC(=O)O)C(=O)N1CCC[C@H]1C(=O)N[C@@H](C)C(=O)N[C@@H](CCC(=O)O)C(=O)N[C@H](C(=O)N[C@@H](CC(C)C)C(=O)NCC(=O)N[C@H](C(=O)NCC(=O)N[C@@H](C)C(N)=O)[C@@H](C)O)C(C)C [TACC3 522-536_(4-CN) -525F] | 
184 ± 22 | CC(=O)N[C@@H](CCC(=O)O)C(=O)N[C@@H](CCC(=O)O)C(=O)N[C@@H](CO)C(=O)N[C@@H](Cc1ccc(F)cc1)C(=O)N[C@@H](CCCNC(=N)N)C(=O)N[C@@H](CC(=O)O)C(=O)N1CCC[C@H]1C(=O)N[C@@H](C)C(=O)N[C@@H](CCC(=O)O)C(=O)N[C@H](C(=O)N[C@@H](CC(C)C)C(=O)NCC(=O)N[C@H](C(=O)NCC(=O)N[C@@H](C)C(N)=O)[C@@H](C)O)C(C)C [TACC3 522-536_(4-F)525F] | 
34 ± 3 | CC(=O)N[C@@H](CCC(=O)O)C(=O)N[C@@H](CCC(=O)O)C(=O)N[C@@H](CO)C(=O)N[C@@H](Cc1ccc(I)cc1)C(=O)N[C@@H](CCCNC(=N)N)C(=O)N[C@@H](CC(=O)O)C(=O)N1CCC[C@H]1C(=O)N[C@@H](C)C(=O)N[C@@H](CCC(=O)O)C(=O)N[C@H](C(=O)N[C@@H](CC(C)C)C(=O)NCC(=O)N[C@H](C(=O)NCC(=O)N[C@@H](C)C(N)=O)[C@@H](C)O)C(C)C [TACC3 522-536_(4-I)525F] | 
